Measured values reported in US8192962B2, “Processes for detecting toxic substances” (Daikin Industries, Ltd., priority 2001, dated 2012).

Tested on: Energy system protein genes
Test: DNA chip mRNA expression in yeast, energy system protein genes (Table 4)
Type: cell-based, Saccharomyces cerevisiae S288C
Protocol: Yeast (Saccharomyces cerevisiae S288C (α SUC2mal mel gap2 CUP1)) were incubated at 25° C. on YPD medium (yeast extract 1%, polypepton 2%, glucose 2%). One of toxic chemical substances was added to the cells at logarithmic growth phase, and the cells were further incubated for two hours. Cells were cultured without any chemical substance in the same condition, and were used as control. Concentrations of the chemical substances were defined to inhibit the growth of the yeast but not lead to death.
After completion of the incubation, the culture was centrifuged to collect the cells. To the cells, sodium acetate buffer (50 mM sodium acetate, 10 mM EDTA, 1% SDS) was added, and the mixture was shaken at 65° C. for five minutes, followed by returning to room temperature, and obtaining the supernatant, of which the procedures were repeated two times. To the supernatant, ½ amount of a solution of phenol/chloroform was added, and the mixture was centrifuged to give a supernatant, which was added with an equal amount of chloroform, and the mixture was centrifuged to give a supernatant. To the supernatant, an equal amount of isopropanol containing 0.3 M sodium acetate was added, and the mixture was allowed to stand at room temperature for 30 minutes, after which the mixture was centrifuged to give a sediment of the whole RNAs. Seventy % ethanol was added to the sediment, and the mixture was again centrifuged to give a sediment, which was then dried and dissolved in water. mRNA was isolated from the whole RNAs as followings. In view of the fact that a poly A chain is attached to the 3′ terminus of mRNA, a polynucleotide having a poly T structure which was immobilized on the surface of latex beads was used to trap the mRNA, and then the mRNA was washed and eluted with spine column (Oligotex-dT30<Super>mRNA Purification Kit, Takara). Reverse transcription of the mRNA was conducted with a reverse transcriptase (Super Script II Reverse Transcriptase; catalogue No. 18064-014, GibcoBRL) using fluorescence-labeled nucleotides to give cDNAs that were introduced with Cy3-dUTP or Cy5-dUTP during the reverse transcription.
The labeled cDNAs were dissolved in TE buffer (10mM Tris-HCl/1 mM EDTA, pH8.0), and the solution was dropped on the DNA chip containing the whole genes of yeast (DNA Chip Research Inc. Japan) so that the cDNAs were hybridized on the DNA chip at 65° C. for over 12 hours. The fluoresces intensity of the DNA chip was read with a scanner, and the ratio relative to the fluorescence intensity resulting from the absence of chemical substance was estimated as the following, which is shown in Tables 1 to 9: […]

Compound: N#Cc1c(Cl)c(Cl)c(Cl)c(C#N)c1Cl [(9), 2,4,5,6-tetrachloro-1,3-benzenedicarbonitrile]
- The level of expressed mRNA in the presence of chemical substance/The level of expressed mRNA in the absence of chemical substance (yeast gene YAL054C): 8.9
- The level of expressed mRNA in the presence of chemical substance/The level of expressed mRNA in the absence of chemical substance (yeast gene YAL060W): 0.6
- The level of expressed mRNA in the presence of chemical substance/The level of expressed mRNA in the absence of chemical substance (yeast gene YBL058W, cells incubated two hours with the chemical substance): 2.6
- The level of expressed mRNA in the presence of chemical substance/The level of expressed mRNA in the absence of chemical substance (yeast gene YBL099W, cells incubated two hours with the chemical substance): 0.9
- The level of expressed mRNA in the presence of chemical substance/The level of expressed mRNA in the absence of chemical substance (yeast gene YBR001C, cells incubated two hours with the chemical substance): 2.3
- The level of expressed mRNA in the presence of chemical substance/The level of expressed mRNA in the absence of chemical substance (yeast gene YBR185C, cells incubated two hours with the chemical substance): 0.9
- The level of expressed mRNA in the presence of chemical substance/The level of expressed mRNA in the absence of chemical substance (yeast gene YBR221C, cells incubated two hours with the chemical substance): 1.0
- The level of expressed mRNA in the presence of chemical substance/The level of expressed mRNA in the absence of chemical substance (yeast gene YBR299W): 1.1
- The level of expressed mRNA in the presence of chemical substance/The level of expressed mRNA in the absence of chemical substance (yeast gene YCL040W): 0.9
- The level of expressed mRNA in the presence of chemical substance/The level of expressed mRNA in the absence of chemical substance (yeast gene YCR012W): 1.4
- The level of expressed mRNA in the presence of chemical substance/The level of expressed mRNA in the absence of chemical substance (yeast gene YCR046C, cells incubated two hours with the chemical substance): 1.9
- The level of expressed mRNA in the presence of chemical substance/The level of expressed mRNA in the absence of chemical substance (yeast gene YCR105W, cells incubated two hours with the chemical substance): 2.0
- The level of expressed mRNA in the presence of chemical substance/The level of expressed mRNA in the absence of chemical substance (yeast gene YDL021W): 2.5
- The level of expressed mRNA in the presence of chemical substance/The level of expressed mRNA in the absence of chemical substance (yeast gene YDL067C, cells incubated two hours with the chemical substance): 0.9
- The level of expressed mRNA in the presence of chemical substance/The level of expressed mRNA in the absence of chemical substance (yeast gene YDL078C, cells incubated two hours with the chemical substance): 1.1
- The level of expressed mRNA in the presence of chemical substance/The level of expressed mRNA in the absence of chemical substance (yeast gene YDL107W, cells incubated two hours with the chemical substance): 1.2
- The level of expressed mRNA in the presence of chemical substance/The level of expressed mRNA in the absence of chemical substance (yeast gene YDL174C): 0.5
- The level of expressed mRNA in the presence of chemical substance/The level of expressed mRNA in the absence of chemical substance (yeast gene YDL181W, cells incubated two hours with the chemical substance): 0.7
- The level of expressed mRNA in the presence of chemical substance/The level of expressed mRNA in the absence of chemical substance (yeast gene YDR001C): 2.2
- The level of expressed mRNA in the presence of chemical substance/The level of expressed mRNA in the absence of chemical substance (yeast gene YDR050C, cells incubated two hours with the chemical substance): 0.4
- The level of expressed mRNA in the presence of chemical substance/The level of expressed mRNA in the absence of chemical substance (yeast gene YDR079W, cells incubated two hours with the chemical substance): 0.9
- The level of expressed mRNA in the presence of chemical substance/The level of expressed mRNA in the absence of chemical substance (yeast gene YDR178W, cells incubated two hours with the chemical substance): 0.9
- The level of expressed mRNA in the presence of chemical substance/The level of expressed mRNA in the absence of chemical substance (yeast gene YDR231C): 1.5
- The level of expressed mRNA in the presence of chemical substance/The level of expressed mRNA in the absence of chemical substance (yeast gene YDR298C, cells incubated two hours with the chemical substance): 1.0
- The level of expressed mRNA in the presence of chemical substance/The level of expressed mRNA in the absence of chemical substance (yeast gene YDR377W, cells incubated two hours with the chemical substance): 1.0
- The level of expressed mRNA in the presence of chemical substance/The level of expressed mRNA in the absence of chemical substance (yeast gene YDR529C, cells incubated two hours with the chemical substance): 0.5
- The level of expressed mRNA in the presence of chemical substance/The level of expressed mRNA in the absence of chemical substance (yeast gene YEL024W, cells incubated two hours with the chemical substance): 0.7
- The level of expressed mRNA in the presence of chemical substance/The level of expressed mRNA in the absence of chemical substance (yeast gene YEL039C, cells incubated two hours with the chemical substance): 1.2
- The level of expressed mRNA in the presence of chemical substance/The level of expressed mRNA in the absence of chemical substance (yeast gene YER178W): 1.7
- The level of expressed mRNA in the presence of chemical substance/The level of expressed mRNA in the absence of chemical substance (yeast gene YFL057C): 51.8
- The level of expressed mRNA in the presence of chemical substance/The level of expressed mRNA in the absence of chemical substance (yeast gene YFR053C): 0.6
- The level of expressed mRNA in the presence of chemical substance/The level of expressed mRNA in the absence of chemical substance (yeast gene YGL018C, cells incubated two hours with the chemical substance): 0.5
- The level of expressed mRNA in the presence of chemical substance/The level of expressed mRNA in the absence of chemical substance (yeast gene YGL062W): 1.6
- The level of expressed mRNA in the presence of chemical substance/The level of expressed mRNA in the absence of chemical substance (yeast gene YGL187C, cells incubated two hours with the chemical substance): 0.6
- The level of expressed mRNA in the presence of chemical substance/The level of expressed mRNA in the absence of chemical substance (yeast gene YGL191W, cells incubated two hours with the chemical substance): 1.1
- The level of expressed mRNA in the presence of chemical substance/The level of expressed mRNA in the absence of chemical substance (yeast gene YGL205W, cells incubated two hours with the chemical substance): 0.5
- The level of expressed mRNA in the presence of chemical substance/The level of expressed mRNA in the absence of chemical substance (yeast gene YGL256W, cells incubated two hours with the chemical substance): 0.4
- The level of expressed mRNA in the presence of chemical substance/The level of expressed mRNA in the absence of chemical substance (yeast gene YGR008C): 3.1
- The level of expressed mRNA in the presence of chemical substance/The level of expressed mRNA in the absence of chemical substance (yeast gene YGR043C): 10.9
- The level of expressed mRNA in the presence of chemical substance/The level of expressed mRNA in the absence of chemical substance (yeast gene YGR062C, cells incubated two hours with the chemical substance, 25° C., YPD medium): 1.0
- The level of expressed mRNA in the presence of chemical substance/The level of expressed mRNA in the absence of chemical substance (yeast gene YGR087C, cells incubated two hours with the chemical substance): 0.2
- The level of expressed mRNA in the presence of chemical substance/The level of expressed mRNA in the absence of chemical substance (yeast gene YGR174C, cells incubated two hours with the chemical substance): 1.8
- The level of expressed mRNA in the presence of chemical substance/The level of expressed mRNA in the absence of chemical substance (yeast gene YGR192C): 0.9
- The level of expressed mRNA in the presence of chemical substance/The level of expressed mRNA in the absence of chemical substance (yeast gene YGR244C): 1.4
- The level of expressed mRNA in the presence of chemical substance/The level of expressed mRNA in the absence of chemical substance (yeast gene YGR254W): 0.8
- The level of expressed mRNA in the presence of chemical substance/The level of expressed mRNA in the absence of chemical substance (yeast gene YGR256W): 3.4
- The level of expressed mRNA in the presence of chemical substance/The level of expressed mRNA in the absence of chemical substance (yeast gene YHL008C): 1.6
- The level of expressed mRNA in the presence of chemical substance/The level of expressed mRNA in the absence of chemical substance (yeast gene YHR174W): 1.0
- The level of expressed mRNA in the presence of chemical substance/The level of expressed mRNA in the absence of chemical substance (yeast gene YHR179W): 3.6
- The level of expressed mRNA in the presence of chemical substance/The level of expressed mRNA in the absence of chemical substance (yeast gene YIL160C): 3.2
- The level of expressed mRNA in the presence of chemical substance/The level of expressed mRNA in the absence of chemical substance (yeast gene YIR031C, cells incubated two hours with the chemical substance): 2.6
- The level of expressed mRNA in the presence of chemical substance/The level of expressed mRNA in the absence of chemical substance (yeast gene YJL052W): 1.6
